Experimental data published in patent US10981926B2 (Janssen Pharmaceutica NV, priority 2016, dated 2021).

Legend:
[1] = target: T1, wild-type Androgen Receptor (AR-wt) (Homo sapiens (Human), UniProt P10275); experiment: LNCaP-AR-wt ANT reporter assay (antagonist mode); assay type: cell-based; conditions: for IC50 / LNCaP-AR-wt ANT pIC50: antagonist mode, pIC50 = −Log10(IC50 in Molar); for IC50: read-out: LNCaP-AR-wt ANT pIC50 (converted); for Emax: maximum % inhibition of R1881 control response over the tested concentration range, read-out: LNCaP-AR-wt ANT MAX % Inh
[2] = target: T2, F876L mutant Androgen Receptor (AR-F876L) (Homo sapiens (Human), UniProt P10275, F877L); experiment: LNCaP-AR-F876L AG reporter assay (agonist mode); assay type: cell-based; conditions: for EC50: agonist mode, pEC50 = −Log10(EC50 in Molar), read-out: LNCaP-AR-F876L AG pEC50 (converted); for Emax: maximum % stimulation (agonist response) over the tested concentration range, read-out: LNCaP-AR-F876L AG MAX % Stim
[3] = target: T2, F876L mutant Androgen Receptor (AR-F876L); experiment: LNCaP-AR-F876L ANT reporter assay (antagonist mode); assay type: cell-based; conditions: for IC50 / LNCaP-AR-F876L ANT pIC50: antagonist mode, pIC50 = −Log10(IC50 in Molar); for IC50: read-out: LNCaP-AR-F876L ANT pIC50 (converted); for Emax: maximum % inhibition of R1881 control response over the tested concentration range, read-out: LNCaP-AR-F876L ANT MAX % Inh
[4] = target: T1, wild-type Androgen Receptor (AR-wt); experiment: LNCaP-AR-wt AG reporter assay (agonist mode); assay type: cell-based; conditions: for EC50: agonist mode, pEC50 = −Log10(EC50 in Molar), read-out: LNCaP-AR-wt AG pEC50 (converted); for Emax: maximum % stimulation (agonist response) over the tested concentration range, read-out: LNCaP-AR-wt AG MAX % Stim
rGABA-gated Cl− channel = experiment: GABA-Gated Cl Channel Antagonist Radioligand Binding Assay; design: species or system rat; conditions: 10 μM single point, [35S]-TBPS, cerebral cortex membrane homogenates
In short: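 Values give percent inhibition of control specific […] (3 nM) binding at a single 10 μM compound concentration. Cerebral cortex membranes, 120 min, 22° C, phosphate buffer pH 7.4 with 500 mM NaCl; 20 μM picrotoxinin sets nonspecific binding; filtration and scintillation read-out.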

T1 sequence (P10275 whole entry): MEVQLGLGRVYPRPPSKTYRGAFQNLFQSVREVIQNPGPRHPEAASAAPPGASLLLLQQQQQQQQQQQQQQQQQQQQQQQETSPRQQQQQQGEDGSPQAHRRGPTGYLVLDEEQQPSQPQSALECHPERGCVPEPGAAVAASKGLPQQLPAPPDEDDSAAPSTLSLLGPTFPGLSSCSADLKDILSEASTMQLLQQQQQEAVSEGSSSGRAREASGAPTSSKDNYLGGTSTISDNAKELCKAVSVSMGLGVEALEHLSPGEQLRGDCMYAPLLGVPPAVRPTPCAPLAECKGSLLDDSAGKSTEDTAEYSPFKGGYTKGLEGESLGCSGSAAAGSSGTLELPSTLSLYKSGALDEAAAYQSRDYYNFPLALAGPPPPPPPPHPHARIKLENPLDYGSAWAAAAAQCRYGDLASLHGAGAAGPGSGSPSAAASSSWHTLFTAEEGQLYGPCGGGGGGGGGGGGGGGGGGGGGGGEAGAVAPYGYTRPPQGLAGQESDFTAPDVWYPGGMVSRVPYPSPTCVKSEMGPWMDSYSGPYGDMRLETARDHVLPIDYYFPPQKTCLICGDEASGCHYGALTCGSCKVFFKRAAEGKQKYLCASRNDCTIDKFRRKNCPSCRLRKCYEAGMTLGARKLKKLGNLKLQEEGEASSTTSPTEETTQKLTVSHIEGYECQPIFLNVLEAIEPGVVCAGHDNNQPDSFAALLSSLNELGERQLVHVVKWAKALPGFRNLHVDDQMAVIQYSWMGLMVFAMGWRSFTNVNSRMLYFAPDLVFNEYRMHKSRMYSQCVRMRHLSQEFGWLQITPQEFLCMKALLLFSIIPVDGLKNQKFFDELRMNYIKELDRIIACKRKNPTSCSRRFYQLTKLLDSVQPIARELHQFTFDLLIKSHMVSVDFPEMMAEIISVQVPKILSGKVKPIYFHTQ
T2 sequence (P10275 whole entry F877L): as the sequence (P10275 whole entry) above, with F877L counted along it

Compound	IC50 [1] [nM]	Emax [1] [%]	EC50 [2] [nM]	Emax [2] [%]	IC50 [3] [nM]	Emax [3] [%]	EC50 [4] [nM]	Emax [4] [%]	rGABA-gated Cl− channel % inh @10 μM (rGABA-gated Cl− channel) [%]	LNCaP-AR-wt ANT pIC50 [1]	LNCaP-AR-F876L ANT pIC50 [3]
C[C@@H]1OC(c2ccc(N3C(=S)N(c4cnc(C#N)c(C(F)(F)F)c4)C(=O)C34CCC4)cc2)=C[C@H](O)[C@H]1O [Cpd 135, 5-(5-(4-((2S,3R,4S)-3,4-dihydroxy-2-methyl-3,4-dihydro-2H-pyran-6-yl)phenyl)-8-oxo-6-thioxo-5,7-diazaspiro[3.4]octan-7-yl)-3-(trifluoromethyl)picolinonitrile]	389	104	> 15100	-0.1	155	102	> 15100	0.1	99.6	–	–
N#Cc1ncc(N2C(=O)C3(CCC3)N(c3ccc(OC4C5CCC4CNC5)cc3)C2=S)cc1C(F)(F)F (stereo not drawn) [Cpd 138, 5-[8-[4-(3-azabicyclo[3.2.1]octan-8-yloxy)phenyl]-5-oxo-7-thioxo-6,8-diazaspiro[3.4]octan-6-yl]-3-(trifluoromethyl)pyridine-2-carbonitrile]	427	103	> 15100	0.1	269	100	> 15100	-0.1	35.6	–	–
Cl.N#Cc1ncc(N2C(=O)C3(CCC3)N(c3cnc(OC4CCNCC4)nc3)C2=S)cc1C(F)(F)F [Cpd 141, 5-{8-Oxo-5-[2-(piperidin-4-yloxy)-pyrimidin-5-yl]-6-thioxo-5,7-diaza-spiro[3.4]oct-7-yl}-3-trifluoromethyl-pyridine-2-carbonitrile]	–	84.9	> 15100	0	–	66.8	> 15100	-0.1	56.1	6.30	6.51
CN1CCC(C(=O)c2ccc(N3C(=S)N(c4cnc(C#N)c(C(F)(F)F)c4)C(=O)C34CCC4)cc2)CC1 [Cpd 144, 5-[8-[4-(1-methylpiperidine-4-carbonyl)phenyl]-5-oxo-7-thioxo-6,8-diazaspiro[3.4]octan-6-yl]-3-(trifluoromethyl)pyridine-2-carbonitrile]	1100	98.3	> 15100	0.6	363	99.9	> 15100	0.3	42.3	–	–
N#Cc1ncc(N2C(=O)C3(CCC3)N(c3ccc(OC4CC5(CCN5)C4)cc3)C2=S)cc1C(F)(F)F (stereo not drawn) [Cpd 148, 5-[8-[4-(3-azaspiro[3.3]heptan-6-yloxy)phenyl]-5-oxo-7-thioxo-6,8-diazaspiro[3.4]octan-6-yl]-3-(trifluoromethyl)pyridine-2-carbonitrile]	302	101	> 15100	0.6	126	101	> 15100	0.1	77.3	–	–
CC(C)CCN1CCC(Oc2ccc(N3C(=S)N(c4cnc(C#N)c(Cl)c4)C(=O)C34CCC4)cn2)CC1 [Cpd 149, 3-chloro-5-[8-[6-[(1-isopentyl-4-piperidyl)oxy]-3-pyridyl]-5-oxo-7-thioxo-6,8-diazaspiro[3.4]octan-6-yl]pyridine-2-carbonitrile]	81.3	99.8	> 15100	1.5	105	97.9	> 15100	0.5	35.4	–	–
CN1CCC(Oc2ncc(N3C(=S)N(c4cnc(C#N)c(C(F)(F)F)c4)C(=O)C34CCC4)cn2)CC1 [Cpd 152, 5-[8-[2-[(1-methyl-4-piperidyl)oxy]pyrimidin-5-yl]-5-oxo-7-thioxo-6,8-diazaspiro[3.4]octan-6-yl]-3-(trifluoromethyl)pyridine-2-carbonitrile]	–	101	> 15100	0.1	–	99.9	> 15100	0.2	15.1	6.38	6.37
